ChEMBL document CHEMBL1138818, “Design and synthesis of cyclic urea compounds: a pharmacological study for retinoidal activity” (2004)
Calls of active or inactive are those of the source. The rule behind the calls is not given here.

The compounds below were run on HL-60 (assay: Effective concentration required for induction of differentiation of HL-60 cells into mature granulocytes. IA = No activity at E-6). Details: Homo sapiens.
Type: functional, cell-based

Row | SMILES | ED50
1 | CC1(C)CCC(C)(C)c2cc(N3CCCN(c4ccc(C(=O)O)cc4)C3=O)ccc21 | inactive
2 | CC(C)(C)c1ccc(N2CCN(c3ccc(C(=O)O)cc3)C2=O)cc1 | inactive
3 | O=C(O)c1ccc(N2CCCN(c3ccccc3)C2=O)cc1 | inactive
4 | O=C(O)c1ccc(N2CCN(c3ccccc3)C2=O)cc1 | inactive
5 | CC(C)(C)c1ccc(N2CCCN(c3ccc(C(=O)O)cc3)C2=O)cc1 | inactive

The compounds below were run on HL-60 (assay: Effective concentration required for induction of differentiation of HL-60 cells into mature granulocytes.). Details: Homo sapiens, read-out: ED50 (the source's name).
Type: functional

Row | SMILES | EC50 [nM]
6 | CC1=C(/C=C/C(C)=C/C=C/C(C)=C/C(=O)O)C(C)(C)CCC1 [TRETINOIN] | 2.4
7 | CC(C)(C)c1cc(N2CCCN(c3ccc(C(=O)O)cc3)C2=O)cc(C(C)(C)C)c1 | 490
8 | CC1(C)CCC(C)(C)c2cc(NC(=O)c3ccc(C(=O)O)cc3)ccc21 [TAMIBAROTENE] | 0.8
9 | CC(C)(C)c1cc(N2CCN(c3ccc(C(=O)O)cc3)C2=O)cc(C(C)(C)C)c1 | 8.3
10 | CC1(C)CCC(C)(C)c2cc(N3CCN(c4ccc(C(=O)O)cc4)C3=O)ccc21 | 120

These compounds were tested on HL-60 (assay: Effective concentration required for induction of differentiation of HL-60 cells into mature granulocytes.( >10e-6= slight activity at 10e-6)). Details: Homo sapiens, read-out: ED50 (the source's name).
Type: functional

Row | SMILES | EC50 [nM]
11 | CC1(C)CCC(C)(C)c2cc(NC(=O)Nc3ccc(C(=O)O)cc3)ccc21 | > 10000
